# In US8093209B2, “Methods of suppressing microglial activation and systemic inflammatory responses” (Cognosci, Incorporated, priority 2002, dated 2012):
# Assays:
# [1] = system: enriched microglia primary cultures from apoE deficient mouse pups; assay: LPS-stimulated nitric oxide (nitrite) secretion by enriched microglia primary cultures; format: cell-based; conditions: peptide 0 μM to 1000 μM, LPS 100 ng/ml, after 48 hours
# Description: Culture preparation and characterization: Mixed glial cell cultures were prepared from: (a) wildtype (C57B16; Jackson Laboratories) mouse pups; (b) ApoE deficient mutant mouse pups (ApoE-deficient mice), and (c) transgenic mouse pups expressing human ApoE3 but not murine ApoE (ApoE3 mice). See Xu et al., Neurobiol. Dis. 3:229 (1996) regarding the creation and characterization of the transgenic mice. Mixed glial cell cultures were prepared as has been described. See McMillian et al., Neurochem. 58:1308 (1992); Laskowitz et al., J. Neuroimmunol. 76:70 (1997). Briefly, brains were removed from 2-4 day old pups, cleaned of membranes and blood vessels, mechanically dispersed in Ca^+2-free media, and collected by centrifugation. Cells were then plated in DMEM/F12 (containing 10% fetal calf serum, 1% penicillin/streptomycin, Gibco #15070), one brain per 25 cm flask. […]
# Nitrite Quantification The production of NO was assessed by measuring the accumulation of nitrite, which was quantified using a calorimetric reaction with Griess reagent (0.1% N-1-naphthylethylenediamine dihydrochloride, 1% sulfanilamide, and 2.5% H3PO4). Absorbance was measured at 570 nm by spectrophotometry. […]
# Enriched microglia primary cultures were prepared from the brains of apoE deficient mouse pups as described in Example 1, above. […] Nitric oxide production was assessed as described in Example 1. […]
# [2] = system: primary hippocampal neurons; conditions: cited from earlier work
sequence,measurement,setting,value
LRKLRKRLL LRKLRKRLL (LRKLRKRLLLRKLRKRLL; fragment of ApoE containing LDL receptor binding site) [SEQ ID NO:3],nitric oxide secretion by activated microglia,[1],dose-dependent decrease in nitric oxide secretion
same,neuronal cell death,[2],induced neuronal cell death
